Test results: patent publication US9738634B2, “Heterocyclic amide compound and herbicide” (SYNGENTA PARTICIPATIONS AG, priority 2013, dated 2017)

Columns and labels:
Type in all cases: in vivo
Conditions in all cases: treatment dosage 320 g/ha
[1] = system: birds-eye speedwell; assay: Test Example 3: weedkilling efficacy through soil treatment; p: birds-eye speedwell
In short: (§1)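 Crop and weed responses were judged three weeks after a uniform surface spray of the water-diluted emulsion at the given g/ha rate. Seeds sat beneath about 1.5 cm of sterilized diluvial soil, and boxes stood in a greenhouse at 25 to 30° C.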

[2] = system: Indian mallow; assay: Test Example 3: weedkilling efficacy through soil treatment; K: Indian mallow
In short: as §1

[3] = system: oval-leafed pondweed; assay: Test Example 2: weedkilling efficacy, growth period weed treatment in the submerged state; C: oval-leafed pondweed
In short: (§2)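 Weeds treated at the 1-2 leaf stage by application of diluted emulsion onto floodwater (4 cm depth, alluvial soil) at specified g/ha. Grown in greenhouse at 25 to 30° C; herbicidal effect rated three weeks after treatment.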

[4] = system: barnyard grass; assay: Test Example 3: weedkilling efficacy through soil treatment; F: barnyard grass
In short: as §1

[5] = system: soybean; assay: Test Example 4: foliar treatment, effect on crop; d: soybean
In short: (§3)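 Seeds are spot-sown into sterilized diluvial soil and covered with about 1.5 cm of soil. After 14 days' greenhouse growth at 25 to 30° C, plants are sprayed on stems and leaves with diluted emulsion at the stated g/ha rate, then scored at 3 weeks.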

[6] = system: corn; assay: Test Example 3: soil treatment, effect on crop; c: corn
In short: as §1

[7] = system: black-grass; assay: Test Example 3: weedkilling efficacy through soil treatment; H: black-grass
In short: as §1

[8] = system: directly sown rice; assay: Test Example 4: foliar treatment, effect on crop; b: directly sown rice
In short: as §3

[9] = system: beet; assay: Test Example 3: soil treatment, effect on crop; f: beet
In short: as §1

[10] = system: chickweed; assay: Test Example 3: weedkilling efficacy through soil treatment; N: chickweed
In short: as §1

[11] = system: black-grass; assay: Test Example 4: weedkilling efficacy by foliar treatment; H: black-grass
In short: as §3

[12] = system: wild oat; assay: Test Example 3: weedkilling efficacy through soil treatment; G: wild oat
In short: as §1

[13] = system: redroot pigweed; assay: Test Example 4: weedkilling efficacy by foliar treatment; L: redroot pigweed
In short: as §3

[14] = system: fig-leafed goosefoot; assay: Test Example 4: weedkilling efficacy by foliar treatment; M: fig-leafed goosefoot
In short: as §3

[15] = system: crabgrass; assay: Test Example 3: weedkilling efficacy through soil treatment; D: crabgrass
In short: as §1

[16] = system: transplanted rice; assay: Test Example 1: preemergent weed treatment in the submerged state, effect on crop; a: transplanted rice
In short: (§4)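 Pre-emergence application onto floodwater (4 cm, alluvial soil) on the day of sowing, dose expressed as g/ha from diluted emulsion formulation. Weeds sown with 2.5-leaf transplanted rice as crop; plants held at 25–30 °C in greenhouse and scored against assessment criteria after 3 weeks.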

[17] = system: Indian mallow; assay: Test Example 4: weedkilling efficacy by foliar treatment; K: Indian mallow
In short: as §3

[18] = system: barnyard grass; assay: Test Example 1: weedkilling efficacy, preemergent weed treatment in the submerged state; A: barnyard grass
In short: as §4

[19] = system: redroot pigweed; assay: Test Example 3: weedkilling efficacy through soil treatment; L: redroot pigweed
In short: as §1

[20] = system: bulrush; assay: Test Example 2: weedkilling efficacy, growth period weed treatment in the submerged state; B: bulrush
In short: as §2

[21] = system: rapeseed; assay: Test Example 4: foliar treatment, effect on crop; g: rapeseed
In short: as §3

[22] = system: Italian ryegrass; assay: Test Example 4: weedkilling efficacy by foliar treatment; I: Italian ryegrass
In short: as §3

[23] = system: chickweed; assay: Test Example 4: weedkilling efficacy by foliar treatment; N: chickweed
In short: as §3

[24] = system: corn; assay: Test Example 4: foliar treatment, effect on crop; c: corn
In short: as §3

[25] = system: barnyard grass; assay: Test Example 2: weedkilling efficacy, growth period weed treatment in the submerged state; A: barnyard grass
In short: as §2

[26] = system: bulrush; assay: Test Example 1: weedkilling efficacy, preemergent weed treatment in the submerged state; B: bulrush
In short: as §4

[27] = system: wild oat; assay: Test Example 4: weedkilling efficacy by foliar treatment; G: wild oat
In short: as §3

[28] = system: oval-leafed pondweed; assay: Test Example 1: weedkilling efficacy, preemergent weed treatment in the submerged state; C: oval-leafed pondweed
In short: as §4

[29] = system: fig-leafed goosefoot; assay: Test Example 3: weedkilling efficacy through soil treatment; M: fig-leafed goosefoot
In short: as §1

[30] = system: soybean; assay: Test Example 3: soil treatment, effect on crop; d: soybean
In short: as §1

[31] = system: barnyard grass; assay: Test Example 4: weedkilling efficacy by foliar treatment; F: barnyard grass
In short: as §3

[32] = system: birds-eye speedwell; assay: Test Example 4: weedkilling efficacy by foliar treatment; p: birds-eye speedwell
In short: as §3

[33] = system: rapeseed; assay: Test Example 3: soil treatment, effect on crop; g: rapeseed
In short: as §1

[34] = system: directly sown rice; assay: Test Example 3: soil treatment, effect on crop; b: directly sown rice
In short: as §1

[35] = system: catchweed; assay: Test Example 4: weedkilling efficacy by foliar treatment; O: catchweed
In short: as §3

[36] = system: green foxtail; assay: Test Example 4: weedkilling efficacy by foliar treatment; E: green foxtail
In short: as §3

[37] = system: wheat; assay: Test Example 4: foliar treatment, effect on crop; e: wheat
In short: as §3

[38] = system: beet; assay: Test Example 4: foliar treatment, effect on crop; f: beet
In short: as §3

[39] = system: common wind-grass; assay: Test Example 4: weedkilling efficacy by foliar treatment; J: common wind-grass
In short: as §3

[40] = system: Italian ryegrass; assay: Test Example 3: weedkilling efficacy through soil treatment; I: Italian ryegrass
In short: as §1

[41] = system: wheat; assay: Test Example 3: soil treatment, effect on crop; e: wheat
In short: as §1

[42] = system: common wind-grass; assay: Test Example 3: weedkilling efficacy through soil treatment; J: common wind-grass
In short: as §1

[43] = system: crabgrass; assay: Test Example 4: weedkilling efficacy by foliar treatment; D: crabgrass
In short: as §3

[44] = system: green foxtail; assay: Test Example 3: weedkilling efficacy through soil treatment; E: green foxtail
In short: as §1

## CC1=C(c2ccccc2)C(=O)N(C(C)(C)C(=O)Nc2cc(Cl)cc(C)n2)CO1 [B-2-42]
[1]
  P (birds-eye speedwell) weedkilling efficacy grade: 5 (weed kill ratio 90% or more, (practically complete withering))
[2]
  K (Indian mallow) weedkilling efficacy grade: 4 (weed kill ratio 70% or more, less than 90%)
[3]
  C (oval-leafed pondweed) weedkilling efficacy grade: 5 (weed kill ratio 90% or more, (practically complete withering))
[4]
  F (barnyard grass) weedkilling efficacy grade: 5 (weed kill ratio 90% or more, (practically complete withering))
[5]
  d (soybean) effect on crop grade: 4 (weed kill ratio 70% or more, less than 90%)
[6]
  c (corn) effect on crop grade: 1 (weed kill ratio 5% or more, less than 20%)
[7]
  H (black-grass) weedkilling efficacy grade: 5 (weed kill ratio 90% or more, (practically complete withering))
[8]
  b (directly sown rice) effect on crop grade: 4 (weed kill ratio 70% or more, less than 90%)
[9]
  f (beet) effect on crop grade: 4 (weed kill ratio 70% or more, less than 90%)
[10]
  N (chickweed) weedkilling efficacy grade: 4 (weed kill ratio 70% or more, less than 90%)
[11]
  H (black-grass) weedkilling efficacy grade: 5 (weed kill ratio 90% or more, (practically complete withering))
[12]
  G (wild oat) weedkilling efficacy grade: 5 (weed kill ratio 90% or more, (practically complete withering))
[13]
  L (redroot pigweed) weedkilling efficacy grade: 4 (weed kill ratio 70% or more, less than 90%)
[14]
  M (fig-leafed goosefoot) weedkilling efficacy grade: 4 (weed kill ratio 70% or more, less than 90%)
[15]
  D (crabgrass) weedkilling efficacy grade: 5 (weed kill ratio 90% or more, (practically complete withering))
[16]
  a (transplanted rice) effect on crop grade: 4 (weed kill ratio 70% or more, less than 90%)
[17]
  K (Indian mallow) weedkilling efficacy grade: 5 (weed kill ratio 90% or more, (practically complete withering))
[18]
  A (barnyard grass) weedkilling efficacy grade: 5 (weed kill ratio 90% or more, (practically complete withering))
[19]
  L (redroot pigweed) weedkilling efficacy grade: 3 (weed kill ratio 40% or more, less than 70%)
[20]
  B (bulrush) weedkilling efficacy grade: 5 (weed kill ratio 90% or more, (practically complete withering))
[21]
  g (rapeseed) effect on crop grade: 4 (weed kill ratio 70% or more, less than 90%)
[22]
  I (Italian ryegrass) weedkilling efficacy grade: 5 (weed kill ratio 90% or more, (practically complete withering))
[23]
  N (chickweed) weedkilling efficacy grade: 4 (weed kill ratio 70% or more, less than 90%)
[24]
  c (corn) effect on crop grade: 3 (weed kill ratio 40% or more, less than 70%)
[25]
  A (barnyard grass) weedkilling efficacy grade: 5 (weed kill ratio 90% or more, (practically complete withering))
[26]
  B (bulrush) weedkilling efficacy grade: 5 (weed kill ratio 90% or more, (practically complete withering))
[27]
  G (wild oat) weedkilling efficacy grade: 3 (weed kill ratio 40% or more, less than 70%)
[28]
  C (oval-leafed pondweed) weedkilling efficacy grade: 5 (weed kill ratio 90% or more, (practically complete withering))
[29]
  M (fig-leafed goosefoot) weedkilling efficacy grade: 4 (weed kill ratio 70% or more, less than 90%)
[30]
  d (soybean) effect on crop grade: 0 (weed kill ratio 5% or less (practically no effect))
[31]
  F (barnyard grass) weedkilling efficacy grade: 5 (weed kill ratio 90% or more, (practically complete withering))
[32]
  P (birds-eye speedwell) weedkilling efficacy grade: 4 (weed kill ratio 70% or more, less than 90%)
[33]
  g (rapeseed) effect on crop grade: 4 (weed kill ratio 70% or more, less than 90%)
[34]
  b (directly sown rice) effect on crop grade: 4 (weed kill ratio 70% or more, less than 90%)
[35]
  O (catchweed) weedkilling efficacy grade: 5 (weed kill ratio 90% or more, (practically complete withering))
[36]
  E (green foxtail) weedkilling efficacy grade: 5 (weed kill ratio 90% or more, (practically complete withering))
[37]
  e (wheat) effect on crop grade: 0 (weed kill ratio 5% or less (practically no effect))
[38]
  f (beet) effect on crop grade: 4 (weed kill ratio 70% or more, less than 90%)
[39]
  J (common wind-grass) weedkilling efficacy grade: 5 (weed kill ratio 90% or more, (practically complete withering))
[40]
  I (Italian ryegrass) weedkilling efficacy grade: 5 (weed kill ratio 90% or more, (practically complete withering))
[41]
  e (wheat) effect on crop grade: 0 (weed kill ratio 5% or less (practically no effect))
[42]
  J (common wind-grass) weedkilling efficacy grade: 5 (weed kill ratio 90% or more, (practically complete withering))
[43]
  D (crabgrass) weedkilling efficacy grade: 5 (weed kill ratio 90% or more, (practically complete withering))
[44]
  E (green foxtail) weedkilling efficacy grade: 5 (weed kill ratio 90% or more, (practically complete withering))
